Measured values taken from patent publication US10562909B2, “Fused quadracyclic compounds, compositions and uses thereof” (Tabomedex Biosciences, LLC, priority 2016, dated 2020).
pIC50: −log10 of the molar value.

Molecular target: MAPKAPK2 (Homo sapiens, UniProt P49137)
Experiment: MK2 Enzymatic Assay
Assay type: biochemical
Conditions: 0.5 nM MAPKAPK2, 3 μM ATP, 2 μM Ser/Thr4 peptide, 23° C., values given as concentration bins
Summary of the method: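 Percent phosphorylation was derived from coumarin and fluorescein emissions relative to 0% and 100% phospho-peptide controls, read after a 120 min development step. Reactions used 2× stocks of 1 nM kinase, 4 μM peptide and 6 μM ATP; enzyme and peptide sat 20 min before a 120 min ATP reaction.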

MAPKAPK2, sequence (P49137 whole entry, species assumed): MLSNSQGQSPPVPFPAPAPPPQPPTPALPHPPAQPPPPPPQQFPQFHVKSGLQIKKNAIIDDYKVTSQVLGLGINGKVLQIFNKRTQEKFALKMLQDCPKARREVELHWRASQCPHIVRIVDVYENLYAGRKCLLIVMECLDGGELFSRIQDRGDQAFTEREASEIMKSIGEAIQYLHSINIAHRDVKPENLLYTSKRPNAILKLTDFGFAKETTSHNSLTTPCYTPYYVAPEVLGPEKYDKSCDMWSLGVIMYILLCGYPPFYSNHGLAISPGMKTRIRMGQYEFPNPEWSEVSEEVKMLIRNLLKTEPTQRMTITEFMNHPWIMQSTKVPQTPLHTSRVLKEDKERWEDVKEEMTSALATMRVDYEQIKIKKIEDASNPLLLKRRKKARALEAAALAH

`CNC[C@@H]1CN(c2ccc3c(c2)Cn2cc(-c4ccc(F)cc4)cc2-c2nccn2-3)C[C@@H]1F` [Compound 474, 1-((3R,4R)-4-fluoro-1-(12-(4-fluorophenyl)-9H-benzo[e]imidazo[2,1-c]pyrrolo[1,2-a][1,4]diazepin-7-yl)pyrrolidin-3-yl)-N-methylmethanamine] and `CNC[C@H]1CN(c2ccc3c(c2)Cn2cc(-c4ccc(F)cc4)cc2-c2nccn2-3)C[C@@H]1O` [Compound 363, (3R,4S)-1-(12-(4-fluorophenyl)-9H-benzo[e]imidazo[2,1-c]pyrrolo[1,2-a][1,4]diazepin-7-yl)-4-((methylamino)methyl)pyrrolidin-3-ol] cannot be ordered by pIC50: over 7.30 for the first, over 7.30 for the second.

First: CN(C)C[C@H]1CN(c2ccc3c(c2)Cn2cc(-c4ccc(C#N)cc4)cc2-c2nccn2-3)C[C@H]1O [Compound 128, 4-(7-((3S,4S)-3-((dimethylamino)methyl)-4-hydroxypyrrolidin-1-yl)-9H-benzo[e]imidazo[2,1-c]pyrrolo[1,2-a][1,4]diazepin-12-yl)benzonitrile]
Second: CN(C)C[C@H]1CN(c2ccc3c(c2)Cn2cc(-c4ccc(C#N)cc4)cc2-c2nccn2-3)C[C@@H]1O [Compound 137, 4-(7-((3S,4R)-3-((dimethylamino)methyl)-4-hydroxypyrrolidin-1-yl)-9H-benzo[e]imidazo[2,1-c]pyrrolo[1,2-a][1,4]diazepin-12-yl)benzonitrile]
The pIC50 of the first is lower: 7.00 to 7.30 for the first, over 7.30 for the second. The second is the more potent here.

First: CN(C)C1CCN(c2cc3c(cn2)-n2cnnc2-c2cc(-c4ccc(C#N)cc4)cn2C3)CC1 [Compound 321, 4-(7-(4-(dimethylamino)piperidin-1-yl)-9H-pyrido[3,4-e]pyrrolo[1,2-a][1,2,4]triazolo[3,4-c][1,4]diazepin-12-yl)benzonitrile]
Second: CN(C)[C@@H]1CCN(c2cc3c(cn2)-n2cnnc2-c2cc(-c4ccc(C#N)cc4)cn2C3)C1 [Compound 319, (R)-4-(7-(3-(dimethylamino)pyrrolidin-1-yl)-9H-pyrido[3,4-e]pyrrolo[1,2-a][1,2,4]triazolo[3,4-c][1,4]diazepin-12-yl)benzonitrile]
The pIC50 of the first is lower: 6.70 to 7.00 for the first, 7.00 to 7.30 for the second.

`CN(C)C[C@H]1CCN(c2ccc3c(c2)Cn2cc(-c4ccc(F)cc4)cc2-c2ncnn2-3)C1` [Compound 414, (R)-1-(1-(12-(4-fluorophenyl)-9H-benzo[e]pyrrolo[1,2-a][1,2,4]triazolo[5,1-c][1,4]diazepin-7-yl)pyrrolidin-3-yl)-N,N-dimethylmethanamine] and `NC[C@H]1CCN(c2ccc3c(c2)Cn2cc(-c4ccc(F)cc4)cc2-c2ncnn2-3)C1` [Compound 496, (R)-(1-(12-(4-fluorophenyl)-9H-benzo[e]pyrrolo[1,2-a][1,2,4]triazolo[5,1-c][1,4]diazepin-7-yl)pyrrolidin-3-yl)methanamine] fall in the same range of pIC50: 7.00 to 7.30 for the first, 7.00 to 7.30 for the second.

`CN(C)C[C@H]1CN(c2ccc3c(c2)Cn2cc(-c4ccc(F)cc4)cc2-c2ncnn2-3)C[C@@H]1O` [Compound 421, (3R,4S)-4-((dimethylamino)methyl)-1-(12-(4-fluorophenyl)-9H-benzo[e]pyrrolo[1,2-a][1,2,4]triazolo[5,1-c][1,4]diazepin-7-yl)pyrrolidin-3-ol] and `CN(C)C[C@H]1CN(c2ccc3c(c2)Cn2cc(-c4ccc(F)cc4)cc2-c2ncnn2-3)C[C@H]1F` [Compound 498, 1-((3S,4S)-4-fluoro-1-(12-(4-fluorophenyl)-9H-benzo[e]pyrrolo[1,2-a][1,2,4]triazolo[5,1-c][1,4]diazepin-7-yl)pyrrolidin-3-yl)-N,N-dimethylmethanamine] cannot be ordered by pIC50: over 7.30 for the first, over 7.30 for the second.

First: CN1CC2(CCN(c3cc4c(cn3)-n3ccnc3-c3cc(-c5ccc(C#N)cc5)cn3C4)C2)C1 [Compound 322, 4-(7-(2-methyl-2,6-diazaspiro[3.4]octan-6-yl)-9H-imidazo[2,1-c]pyrido[3,4-e]pyrrolo[1,2-a] [1,4]diazepin-12-yl)benzonitrile]
Second: CN1CC2(CCN(c3ccc4c(n3)Cn3cc(-c5ccc(F)cc5)cc3-c3nccn3-4)C2)C1 [Compound 441, 12-(4-fluorophenyl)-7-(2-methyl-2,6-diazaspiro[3.4]octan-6-yl)-9H-imidazo[2,1-c]pyrido[3,2-e]pyrrolo[1,2-a][1,4]diazepine]
The pIC50 of the first is lower: 6.70 to 7.00 for the first, over 7.30 for the second.

Compared with `CN(C)C[C@H]1CN(c2ccc3c(c2)Cn2cc(-c4ccc(C#N)cc4)cc2-c2nncn2-3)C[C@H]1O` (relative stereo) [Compound 75, 4-(7-(Cis-3-((dimethylamino)methyl)-4-hydroxypyrrolidin-1-yl)-9H-benzo[e]pyrrolo[1,2-a] [1,2,4]triazolo[3,4-c][1,4]diazepin-12-yl)benzonitrile], `CN(C)[C@@H]1CN(c2ccc3c(c2)Cn2cc(-c4ccc(C#N)cc4)cc2-c2nncn2-3)C[C@@H]1O` [Compound 83, 4-(7-((3R,4S)-3-(dimethylamino)-4-hydroxypyrrolidin-1-yl)-9H-benzo[e]pyrrolo[1,2-a] [1,2,4]triazolo[3,4-c][1,4]diazepin-12-yl)benzonitrile] is lower in pIC50: over 7.30 for the first, 7.00 to 7.30 for the second.

`CN(C)C[C@H]1CN(c2ccc3c(c2)Cn2cc(-c4ccc(F)cc4)cc2-c2nccn2-3)C[C@H]1O` [Compound 349, (3S,4S)-4-((dimethylamino)methyl)-1-(12-(4-fluorophenyl)-9H-benzo[e]imidazo[2,1-c]pyrrolo[1,2-a][1,4]diazepin-7-yl)pyrrolidin-3-ol] and `CN(C)C[C@H]1CN(c2ccc3c(c2)Cn2cc(-c4ccc(F)cc4)cc2-c2nccn2-3)C[C@@H]1O` [Compound 356, (3R,4S)-4-((dimethylamino)methyl)-1-(12-(4-fluorophenyl)-9H-benzo[e]imidazo[2,1-c]pyrrolo[1,2-a][1,4]diazepin-7-yl)pyrrolidin-3-ol] cannot be ordered by pIC50: over 7.30 for the first, over 7.30 for the second.

`OC1CCN(C[C@@H]2CCN(c3ccc4c(c3)Cn3cc(-c5ccc(F)cc5)cc3-c3nccn3-4)C2)CC1` [Compound 361, (S)-1-((1-(12-(4-fluorophenyl)-9H-benzo[e]imidazo[2,1-c]pyrrolo[1,2-a][1,4]diazepin-7-yl)pyrrolidin-3-yl)methyl)piperidin-4-ol] and `CNC[C@H]1CCN(c2ccc3c(c2)Cn2cc(-c4ccc(F)cc4)cc2-c2nccn2-3)C1` [Compound 348, (R)-1-(1-(12-(4-fluorophenyl)-9H-benzo[e]imidazo[2,1-c]pyrrolo[1,2-a][1,4]diazepin-7-yl)pyrrolidin-3-yl)-N-methylmethanamine] cannot be ordered by pIC50: over 7.30 for the first, over 7.30 for the second.

`Cc1cc(N2C[C@@H](CN(C)C)[C@H](O)C2)cc2c1-n1ncnc1-c1cc(-c3ccc(F)cc3)cn1C2` [Compound 513, (3S,4R)-4-((dimethylamino)methyl)-1-(12-(4-fluorophenyl)-5-methyl-9H-benzo[e]pyrrolo[1,2-a][1,2,4]triazolo[5,1-c][1,4]diazepin-7-yl)pyrrolidin-3-ol] and `N[C@@H]1CN(c2ccc3c(c2)Cn2cc(-c4ccc(F)cc4)cc2-c2ncnn2-3)C[C@H]1CO` (relative stereo) [Compound 503, (Trans-4-amino-1-(12-(4-fluorophenyl)-9H-benzo[e]pyrrolo[1,2-a][1,2,4]triazolo[5,1-c][1,4]diazepin-7-yl)pyrrolidin-3-yl)methanol] fall in the same range of pIC50: 6.70 to 7.00 for the first, 6.70 to 7.00 for the second.

`CN(C)C[C@@H]1CN(c2ccc3c(n2)Cn2cc(-c4ccc(F)cc4)cc2-c2nccn2-3)C[C@H]1O` [Compound 436, (3S,4R)-4-((dimethylamino)methyl)-1-(12-(4-fluorophenyl)-9H-imidazo[2,1-c]pyrido[3,2-e]pyrrolo[1,2-a][1,4]diazepin-7-yl)pyrrolidin-3-ol] and `CN(C)C[C@H]1CN(c2ccc3c(n2)Cn2cc(-c4ccc(C#N)cc4)cc2-c2nccn2-3)C[C@H]1O` [Compound 298, 4-(7-((3S,4S)-3-((dimethylamino)methyl)-4-hydroxypyrrolidin-1-yl)-9H-imidazo[2,1-c]pyrido[3,2-e]pyrrolo[1,2-a][1,4]diazepin-12-yl)benzonitrile] cannot be ordered by pIC50: over 7.30 for the first, over 7.30 for the second.

Compared with `O=C1N[C@@H]2CN(c3ccc4c(c3)Cn3cc(-c5ccc(F)cc5)cc3-c3nccn3-4)C[C@@H]2O1` [Compound 481, (3aR,6aS)-5-(12-(4-fluorophenyl)-9H-benzo[e]imidazo[2,1-c]pyrrolo[1,2-a][1,4]diazepin-7-yl)hexahydro-2H-pyrrolo[3,4-d]oxazol-2-one], `CN(C)C1CCN(c2ccc3c(c2)Cn2cc(-c4ccc(F)cc4)cc2-c2nccn2-3)CC1` [Compound 381, 1-(12-(4-fluorophenyl)-9H-benzo[e]imidazo[2,1-c]pyrrolo[1,2-a][1,4]diazepin-7-yl)-N,N-dimethylpiperidin-4-amine] is higher in pIC50: 6.00 to 6.70 for the first, over 7.30 for the second.

`CNC[C@H]1CN(c2ccc3c(c2)Cn2cc(-c4ccc(F)cc4)cc2-c2ncnn2-3)C[C@H]1F` (relative stereo) [Compound 501, 1-(cis-4-fluoro-1-(12-(4-fluorophenyl)-9H-benzo[e]pyrrolo[1,2-a][1,2,4]triazolo[5,1-c][1,4]diazepin-7-yl)pyrrolidin-3-yl)-N-methylmethanamine] and `N#Cc1ccc(-c2cc3n(c2)Cc2cc(N4C[C@@H](F)[C@@H](N)C4)ccc2-n2cnnc2-3)cc1` (racemic) [Compound 76, 4-(7-(cis-3-amino-4-fluoropyrrolidin-1-yl)-9H-benzo[e]pyrrolo[1,2-a][1,2,4]triazolo[3,4-c][1,4]diazepin-12-yl)benzonitrile] cannot be ordered by pIC50: over 7.30 for the first, over 7.30 for the second.

First: NC[C@H]1CCN(c2ccc3c(c2)Cn2cc(-c4ccc(F)cc4)cc2-c2nncn2-3)C1 [Compound 334, (R)-(1-(12-(4-fluorophenyl)-9H-benzo[e]pyrrolo[1,2-a][1,2,4]triazolo[3,4-c][1,4]diazepin-7-yl)pyrrolidin-3-yl)methanamine]
Second: N#Cc1ccc(-c2cc3n(c2)Cc2cc(N4CC5(CCNCC5)C4)ccc2-n2nnnc2-3)cc1 [Compound 245, 4-(7-(2,7-diazaspiro[3.5]nonan-2-yl)-9H-benzo[e]pyrrolo[1,2-a]tetrazolo[5,1-c][1,4]diazepin-12-yl)benzonitrile]
The pIC50 of the first is higher: over 7.30 for the first, 6.70 to 7.00 for the second.
